Results: publication PMC6949950, “Screening Mold Colonies by Using Two Toxicity Assays Revealed Indoor Strains of Aspergillus calidoustus Producing Ophiobolins G and K” (Toxins, 2019)
Values after ≈ are worked out from the molar mass of the structure shown. Read-outs that look alike come from different tables or passages of the source.

Assays:
[1] = tested on: porcine kidney PK-15 cells; experiment: cells; type: cell-based; conditions: for EC50: Sus scrofa, read-out: EC50 ICP 2 days
boar spermatozoa [2] = experiment: cells; type: cell-based; conditions: for EC50: Spermatozoa, 24 h, read-out: EC50 SMID 1 day
boar spermatozoa [3] = experiment: cells; type: cell-based; conditions: for EC50: Spermatozoa
M. circinelloides = tested on: M. circinelloides; parameters: method as in doi:10.1211/146080800128736312, PMID 21054501, PMID 22130129, PMID 23538442; conditions: cited from earlier work
[4] = PK-15, 48 h, PK-15 cells, exposure 2 days, SD between three measurements < ± 35%
[5] = boar sperm, exposure 1 day, SD between three measurements < ± 35%
[6] = boar sperm, exposure 0.5–1 h, twofold dilutions, three measurements within one dilution step, read-out: EC50 BSMI 0.5–1 h
[7] = boar sperm, exposure 1–2 days, twofold dilutions, read-out: EC50 BSMI 1–2 days
[8] = PK-15 cells, exposure 2 days, SD between three measurements < ± 35%
[9] = boar sperm, exposure 0.5–1 h, twofold dilutions, three measurements within one dilution step
[10] = boar sperm, exposure 1–2 days, twofold dilutions

Q: For `CC1(C)C=Cc2c(ccc3c2[N+]([O-])=C2C3=C[C@@]34NC(=O)[C@]5(CCCN5C3=O)C[C@H]4C2(C)C)O1` [Avrainvillamide], which EC50 [1, 4] is on record?
A: 0.3 µg/mL (≈ 0.673 µM)

Q: What about the EC50 (boar spermatozoa [2]; [5]) of the same compound?
A: > 2 µg/mL

Q: And the EC50 (boar spermatozoa [3]; [6])?
A: 0.6 µg/mL (≈ 1.35 µM)

Q: What about the EC50 (boar spermatozoa [3]; [7]) of the same compound?
A: 0.3 µg/mL (≈ 0.673 µM)

Q: What does the source list for `C[C@@H]1Cc2c(Cl)cc(C(=O)N[C@@H](Cc3ccccc3)C(=O)O)c(O)c2C(=O)O1` [Ochratoxin A]?
A: EC50 ([1]; 48 h, PK-15 cells, exposure 2 days, SD between three measurements < ± 35%): > 50 µg/mL; EC50 (boar spermatozoa [2]; [5]): > 50 µg/mL; EC50 (boar spermatozoa [3]; [6]): > 100 µg/mL; EC50 (boar spermatozoa [3]; [7]): > 50 µg/mL

Q: For `CC(C)=C[C@H]1C[C@H](C)[C@]2(CC[C@]3(C)C[C@H]4[C@H](C(=O)C[C@@]4(C)O)/C(C=O)=C\C[C@H]32)O1` [Ophiobolin A], which “EC50 ICP 2 days” value [1, 8] is on record?
A: 0.2 µg/mL (≈ 0.499 µM)

Q: And the “treatment concentration at which apoptosis-like cell death process was observed” value (M. circinelloides)?
A: 1.6 µg/mL

Q: And the EC50 (boar spermatozoa [2]; [5])?
A: 2 µg/mL (≈ 4.99 µM)

Q: What about the EC50 (boar spermatozoa [3]; [6]) of the same compound?
A: 2.5 µg/mL (≈ 6.24 µM)

Q: And the EC50 (boar spermatozoa [3]; [7])?
A: 0.25 µg/mL (≈ 0.624 µM)

Q: Which “EC50 ICP 2 days” value [1, 8] does the source give for `CC1(C)C=Cc2c(ccc3c2[N+]([O-])=C2C(C)(C)[C@@H]4CC56CCCN5C(=O)[C@]4(NC6=O)[C@H]4N5C(=O)[C@@]67CCCN6C(=O)[C@@]56[C@H](c5c(n(O)c8c9c(ccc58)OC(C)(C)C=C9)C(C)(C)[C@@H]6C7)[C@]234)O1` [Stephacidin B] here?
A: 0.2 µg/mL (≈ 0.224 µM)

Q: What about the “EC50 SMID 1 day” value (boar spermatozoa [2]; [5]) of the same compound?
A: >2 µg/mL

Q: What about the “EC50 BSMI 0.5–1 h” value (boar spermatozoa [3]; [9]) of the same compound?
A: 0.5 µg/mL (≈ 0.561 µM)

Q: And the “EC50 BSMI 1–2 days” value (boar spermatozoa [3]; [10])?
A: 0.2 µg/mL (≈ 0.224 µM)

Q: Which “EC50 ICP 2 days” value [1] does the source give for `COc1cc2c(c3oc4cccc(O)c4c(=O)c13)[C@@H]1C=CO[C@@H]1O2` [Sterigmatocystin] here?
A: 0.25 µg/mL (≈ 0.771 µM)

Q: And the “toxicity to proliferating PK-15 cells in the ICP assay” value [1]?
A: highly toxic

Q: And the “EC50 SMID 1 day” value (boar spermatozoa [2])?
A: >20 µg/mL

Q: What about the “EC50 BSMI 0.5–1 h” value (boar spermatozoa [3]) of the same compound?
A: >100 µg/mL

Q: And the “EC50 BSMI 1–2 days” value (boar spermatozoa [3])?
A: >20 µg/mL

Q: For `Oc1cc(Cl)ccc1Oc1ccc(Cl)cc1Cl` [triclosan], which EC50 [1, 4] is on record?
A: 9.4 µg/mL (≈ 32.5 µM)

Q: What about the EC50 (boar spermatozoa [2]; [5]) of the same compound?
A: 2 µg/mL (≈ 6.91 µM)

Q: With Alamethicin as the compound, how does the “EC50 ICP 2 days” value [1, 8] read?
A: 8 µg/mL

Q: And the “EC50 SMID 1 day” value (boar spermatozoa [2]; [5])?
A: 0.2 µg/mL

Q: What about the “EC50 BSMI 0.5–1 h” value (boar spermatozoa [3]; [9]) of the same compound?
A: 5 µg/mL

Q: And the “EC50 BSMI 1–2 days” value (boar spermatozoa [3]; [10])?
A: 0.2 µg/mL
